Test results: ChEMBL document CHEMBL1201862, “PubChem BioAssay data set” (2004)
Calls of active or inactive are those of the source.

Key:
[1] = molecular target: Melanocortin receptor 4 (Homo sapiens, UniProt P32245); assay: inhibitors of MC4R cAMP signaling – cell-based, TR-FRET, biased antagonists, dose response (AID 602298); type: functional;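 also: antagonist potency against agonist-stimulated cAMP production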
[2] = cAMP pathway inhibition in counterscreen cell line – TR-FRET cAMP detection, counter-screen for MC4R biased antagonist project, dose response (AID 602305); type: functional, cell-based;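 also: U2OS cells stimulated with forskolin near its EC80 as the cAMP inducer; potency is for inhibition of forskolin-stimulated cAMP signaling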
[3] = tested on: HeLa; assay: ATP-based viability loss in HeLa cells – cell-based, CellTiter-Glo luminescence, cherry-pick samples, cytotoxicity control for MITF activator project, dose response (AID 540259); type: functional; details: Homo sapiens
[4] = molecular target: Nucleotide-binding oligomerization domain-containing protein 2 (Homo sapiens, UniProt Q9HC29); assay: inhibition of NOD2-driven NF-kB reporter – cell-based, luminescence, uHTS, HEK293 (AID 1566); type: functional
Chain of Nucleotide-binding oligomerization domain-containing protein 2 (Q9HC29 whole entry, the tested form may be a part): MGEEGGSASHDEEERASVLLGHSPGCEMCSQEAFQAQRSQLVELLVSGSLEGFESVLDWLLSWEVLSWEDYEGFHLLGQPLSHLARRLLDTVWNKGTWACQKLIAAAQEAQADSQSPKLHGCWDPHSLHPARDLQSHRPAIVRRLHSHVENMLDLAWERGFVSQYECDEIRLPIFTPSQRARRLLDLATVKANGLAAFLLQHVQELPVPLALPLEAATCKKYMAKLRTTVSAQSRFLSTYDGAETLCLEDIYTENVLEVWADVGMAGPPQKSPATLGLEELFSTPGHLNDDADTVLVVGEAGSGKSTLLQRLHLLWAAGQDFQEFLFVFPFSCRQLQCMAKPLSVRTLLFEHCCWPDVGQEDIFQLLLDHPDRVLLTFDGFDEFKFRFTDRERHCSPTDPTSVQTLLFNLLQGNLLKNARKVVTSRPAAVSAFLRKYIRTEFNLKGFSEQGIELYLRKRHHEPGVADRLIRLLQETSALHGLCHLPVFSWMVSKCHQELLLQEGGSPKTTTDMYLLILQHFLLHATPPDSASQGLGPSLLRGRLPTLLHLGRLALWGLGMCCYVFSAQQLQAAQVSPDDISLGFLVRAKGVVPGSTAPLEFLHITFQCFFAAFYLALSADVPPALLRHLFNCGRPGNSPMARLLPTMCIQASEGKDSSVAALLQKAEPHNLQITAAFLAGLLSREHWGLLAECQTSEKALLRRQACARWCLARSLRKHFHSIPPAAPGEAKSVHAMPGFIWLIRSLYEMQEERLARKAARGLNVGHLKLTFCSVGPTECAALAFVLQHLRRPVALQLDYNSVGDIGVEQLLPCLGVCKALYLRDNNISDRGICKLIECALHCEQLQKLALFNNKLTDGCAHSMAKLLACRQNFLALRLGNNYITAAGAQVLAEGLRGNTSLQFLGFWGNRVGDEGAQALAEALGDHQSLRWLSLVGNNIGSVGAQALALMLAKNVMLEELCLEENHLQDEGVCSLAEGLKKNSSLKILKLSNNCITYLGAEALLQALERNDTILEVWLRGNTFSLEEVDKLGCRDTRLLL

[5] = tested on: HEK293; assay: inhibition of NOD1-driven NF-kB reporter – cell-based, luminescence, uHTS, primary screen (AID 1578); type: functional; details: Homo sapiens
[6] = tested on: HEK293; assay: NOD2 signaling inhibitors in MDP-stimulated cells, cell-based, uHTS, luminescence (AID 2001); type: functional; details: Homo sapiens
[7] = tested on: HEK293; assay: cells; type: functional, cell-based; details: Homo sapiens
[8] = tested on: HEK293; assay: cells; type: functional, cell-based; details: Homo sapiens; remark: listed apart in the source
[9] = tested on: HEK293; assay: cells; type: functional, cell-based; details: Homo sapiens; remark: listed apart in the source
[10] = molecular target: T1, Estrogen receptor (Homo sapiens, UniProt P03372);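 also: potency for inhibiting coactivator peptide recruitment to the receptor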
T1 sequence (P03372 whole entry): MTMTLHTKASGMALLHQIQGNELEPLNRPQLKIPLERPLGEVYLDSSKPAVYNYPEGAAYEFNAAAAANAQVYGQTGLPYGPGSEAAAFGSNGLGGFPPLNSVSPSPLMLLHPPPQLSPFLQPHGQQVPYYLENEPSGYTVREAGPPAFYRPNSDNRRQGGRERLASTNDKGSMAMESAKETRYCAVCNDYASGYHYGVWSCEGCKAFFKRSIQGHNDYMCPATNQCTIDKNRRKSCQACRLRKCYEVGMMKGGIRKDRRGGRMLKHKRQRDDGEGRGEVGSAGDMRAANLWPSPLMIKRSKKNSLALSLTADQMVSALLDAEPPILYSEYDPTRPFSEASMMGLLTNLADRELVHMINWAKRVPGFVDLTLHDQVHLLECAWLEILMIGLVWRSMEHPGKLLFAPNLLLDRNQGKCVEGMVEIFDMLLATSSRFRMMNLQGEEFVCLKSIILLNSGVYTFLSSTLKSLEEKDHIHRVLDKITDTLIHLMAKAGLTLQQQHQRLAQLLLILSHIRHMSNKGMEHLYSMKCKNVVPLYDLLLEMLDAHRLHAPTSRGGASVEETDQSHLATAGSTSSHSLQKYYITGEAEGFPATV

[11] = cells; type: functional
[12] = Vero E6 cell cytotoxicity, dose response, cytotoxicity control for non-replicating M. tuberculosis project, secondary assay (AID 492998); type: functional, VeroE6; details: Vero C1008
[13] = molecular target: Luciferin 4-monooxygenase (Photinus pyralis, UniProt P08659); assay: inhibition of purified Photinus pyralis luciferase – biochemical, luminescence, dose response (AID 1891)
Chain of Luciferin 4-monooxygenase (P08659 whole entry): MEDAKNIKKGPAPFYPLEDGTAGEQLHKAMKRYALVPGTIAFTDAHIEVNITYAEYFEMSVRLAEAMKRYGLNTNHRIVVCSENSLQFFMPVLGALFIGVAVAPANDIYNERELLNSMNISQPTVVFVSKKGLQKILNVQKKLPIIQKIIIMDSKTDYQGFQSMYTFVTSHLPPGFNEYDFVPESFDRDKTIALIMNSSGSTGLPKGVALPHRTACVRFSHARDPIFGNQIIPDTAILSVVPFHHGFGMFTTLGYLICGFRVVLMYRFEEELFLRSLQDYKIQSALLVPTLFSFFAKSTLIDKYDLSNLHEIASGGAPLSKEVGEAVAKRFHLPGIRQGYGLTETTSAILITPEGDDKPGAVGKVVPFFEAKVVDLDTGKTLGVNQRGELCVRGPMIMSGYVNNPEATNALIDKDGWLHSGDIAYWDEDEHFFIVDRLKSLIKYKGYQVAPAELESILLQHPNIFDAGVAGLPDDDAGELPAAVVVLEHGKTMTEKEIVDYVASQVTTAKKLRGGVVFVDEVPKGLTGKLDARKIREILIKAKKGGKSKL

[14] = Luminescence Cell-Based Dose Confirmation HTS to Identify Inhibitors of Platelet Dense Granule Release. [Related pubchem assays: 1663 (Primary HTS), 1678 (Summary of Project)]; type: functional
[15] = molecular target: T2, Heat shock factor protein 1 (Mus musculus, UniProt P38532); assay: decrease of HSF1-responsive luciferase luminescence – cell-based, NIH3T3, dose retest, confirmation (AID 2382); type: functional;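 also: NIH3T3 fibroblasts with HSF1-driven luciferase reporter stressed by proteasome inhibitor MG132; luminescence from HSF1-driven luciferase expression after 8 hours of MG132 stress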
T2 sequence (P38532 whole entry): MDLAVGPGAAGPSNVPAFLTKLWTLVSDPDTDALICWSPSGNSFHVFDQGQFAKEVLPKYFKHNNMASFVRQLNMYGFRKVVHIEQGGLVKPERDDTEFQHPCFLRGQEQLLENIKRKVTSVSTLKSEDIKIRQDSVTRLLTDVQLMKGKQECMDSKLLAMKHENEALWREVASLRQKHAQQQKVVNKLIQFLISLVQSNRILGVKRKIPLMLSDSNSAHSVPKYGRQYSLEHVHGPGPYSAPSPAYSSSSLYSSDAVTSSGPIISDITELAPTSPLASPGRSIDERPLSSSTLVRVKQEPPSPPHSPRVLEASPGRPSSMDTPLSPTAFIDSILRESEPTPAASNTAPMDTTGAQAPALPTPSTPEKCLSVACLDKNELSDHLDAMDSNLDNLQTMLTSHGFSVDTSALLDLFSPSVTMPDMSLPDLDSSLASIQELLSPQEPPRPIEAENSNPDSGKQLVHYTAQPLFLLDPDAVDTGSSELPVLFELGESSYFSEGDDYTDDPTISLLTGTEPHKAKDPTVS

[16] = molecular target: T3, Neuropeptides B/W receptor type 1 (Homo sapiens, UniProt P48145); assay: human NPBW1 receptor blockade, IC50 – cell-based, fluorescence, dose response, set 6, late-stage follow-up (AID 588583); type: functional
T3 sequence (P48145 whole entry): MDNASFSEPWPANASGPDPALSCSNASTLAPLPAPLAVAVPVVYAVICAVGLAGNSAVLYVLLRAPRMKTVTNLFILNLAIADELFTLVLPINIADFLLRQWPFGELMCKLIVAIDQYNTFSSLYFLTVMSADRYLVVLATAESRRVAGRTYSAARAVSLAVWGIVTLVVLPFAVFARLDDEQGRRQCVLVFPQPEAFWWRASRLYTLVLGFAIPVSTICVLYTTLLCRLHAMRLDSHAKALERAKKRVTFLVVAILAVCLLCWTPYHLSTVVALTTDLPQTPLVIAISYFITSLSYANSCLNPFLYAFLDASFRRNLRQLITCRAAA

[17] = molecular target: Melanin-concentrating hormone receptor 1 (Homo sapiens, UniProt Q99705); assay: Late-stage fluorescence-based counterscreen for antagonists of the G-protein coupled receptor 7 (GPR7): cell-based dose response assay to identify antagonists of the melanin-concentrating hormone receptor 1 (MCHR1) Set 6.; type: functional
Chain of Melanin-concentrating hormone receptor 1 (Q99705 whole entry): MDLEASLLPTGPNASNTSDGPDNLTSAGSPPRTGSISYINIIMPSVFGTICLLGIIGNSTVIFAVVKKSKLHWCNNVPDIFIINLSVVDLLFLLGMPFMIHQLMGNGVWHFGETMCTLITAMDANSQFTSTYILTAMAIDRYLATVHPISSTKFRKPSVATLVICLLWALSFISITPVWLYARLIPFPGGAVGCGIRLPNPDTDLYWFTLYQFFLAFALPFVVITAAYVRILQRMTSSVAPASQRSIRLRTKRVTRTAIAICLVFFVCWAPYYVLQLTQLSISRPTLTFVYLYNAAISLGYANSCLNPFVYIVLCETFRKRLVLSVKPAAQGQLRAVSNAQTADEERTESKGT

[18] = microbe, parasite or virus in culture; type: functional; details: Mycobacterium tuberculosis
[19] = molecular target: T4, Ubiquitin-conjugating enzyme E2 N (Homo sapiens, UniProt P61088); type: functional;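 also: Dose-response confirmation in a TR-FRET assay detecting UBC13-driven polyubiquitin chain formation, inhibition measured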
T4 sequence (P61088 whole entry): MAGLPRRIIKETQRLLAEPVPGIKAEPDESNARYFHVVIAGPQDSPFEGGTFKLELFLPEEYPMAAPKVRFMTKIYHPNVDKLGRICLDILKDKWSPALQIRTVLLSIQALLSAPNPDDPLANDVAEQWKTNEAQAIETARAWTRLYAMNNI

[20] = molecular target: Cytochrome P450 3A4 (Homo sapiens, UniProt P08684); details: Potency;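 also: confirmatory qHTS run detecting inhibitors and substrates of CYP3A4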
Chain of Cytochrome P450 3A4 (P08684 whole entry): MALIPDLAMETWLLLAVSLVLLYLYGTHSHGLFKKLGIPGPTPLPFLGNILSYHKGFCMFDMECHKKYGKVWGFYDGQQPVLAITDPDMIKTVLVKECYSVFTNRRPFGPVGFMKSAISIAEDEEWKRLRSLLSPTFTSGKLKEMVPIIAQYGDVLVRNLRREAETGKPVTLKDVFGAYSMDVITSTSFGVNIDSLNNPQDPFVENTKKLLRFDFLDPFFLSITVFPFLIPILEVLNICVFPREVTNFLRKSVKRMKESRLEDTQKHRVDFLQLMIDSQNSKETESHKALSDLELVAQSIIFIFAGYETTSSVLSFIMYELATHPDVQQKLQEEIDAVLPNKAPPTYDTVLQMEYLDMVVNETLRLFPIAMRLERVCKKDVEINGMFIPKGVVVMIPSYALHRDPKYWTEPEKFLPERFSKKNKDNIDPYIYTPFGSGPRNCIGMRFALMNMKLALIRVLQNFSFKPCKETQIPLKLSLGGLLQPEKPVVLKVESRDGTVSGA

[21] = tested on: Vero; assay: cells; type: functional; details: Chlorocebus sabaeus
[22] = molecular target: Cytochrome P450 2C9 (Homo sapiens, UniProt P11712)
Chain of Cytochrome P450 2C9 (P11712 whole entry): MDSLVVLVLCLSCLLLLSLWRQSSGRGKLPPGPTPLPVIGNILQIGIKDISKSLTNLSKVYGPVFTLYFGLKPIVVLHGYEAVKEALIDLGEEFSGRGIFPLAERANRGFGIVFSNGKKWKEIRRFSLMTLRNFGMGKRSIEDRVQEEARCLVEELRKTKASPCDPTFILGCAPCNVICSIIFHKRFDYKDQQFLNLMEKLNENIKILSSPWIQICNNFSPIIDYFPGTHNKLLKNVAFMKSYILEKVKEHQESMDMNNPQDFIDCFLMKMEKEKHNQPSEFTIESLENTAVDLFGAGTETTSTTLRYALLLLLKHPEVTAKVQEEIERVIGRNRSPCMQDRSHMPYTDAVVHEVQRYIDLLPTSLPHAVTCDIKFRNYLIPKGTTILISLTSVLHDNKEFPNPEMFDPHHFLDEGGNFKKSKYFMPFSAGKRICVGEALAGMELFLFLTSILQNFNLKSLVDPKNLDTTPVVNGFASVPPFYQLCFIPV

[23] = cells
[24] = NIH3T3 cell viability loss – ATP luminescence, mouse fibroblasts, counter-screen, dose response (AID 2010); type: functional, cell-based;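 also: cells exposed to compound for about 90 hours before reading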
[25] = Trypanosoma cruzi growth suppression in host cells – NIH3T3 host cells, beta-gal luminescence, confirmation (AID 2044); type: functional, cell-based;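 also: intracellular parasites grown in NIH/3T3 mouse fibroblasts as host cells; luminescent beta-galactosidase reporter signal from transgenic T. cruzi replicating inside host cells; inhibitors lower the luminescence signal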

Chain of Melanocortin receptor 4 (P32245 whole entry): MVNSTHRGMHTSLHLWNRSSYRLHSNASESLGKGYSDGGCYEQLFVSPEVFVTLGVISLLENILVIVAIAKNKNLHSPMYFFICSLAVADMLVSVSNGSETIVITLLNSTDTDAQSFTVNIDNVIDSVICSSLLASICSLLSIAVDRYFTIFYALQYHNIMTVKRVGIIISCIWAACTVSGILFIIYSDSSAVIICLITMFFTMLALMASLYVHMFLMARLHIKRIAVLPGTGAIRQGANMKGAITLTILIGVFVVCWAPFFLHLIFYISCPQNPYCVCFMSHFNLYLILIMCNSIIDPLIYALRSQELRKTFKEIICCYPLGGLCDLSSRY

## COc1ccc(OC)c(NC(=O)CCN2C(=O)c3cccc([N+](=O)[O-])c3C2=O)c1
[1]
  IC50: > 64.6 µM (inactive)
[2]
  IC50: > 64.6 µM (inactive)

## Cc1ccc(C(=O)Nc2ncccc2S(=O)(=O)c2ccccc2)cc1
[3]
  AC50: > 350 µM (inactive)

## O=C(CNC(=O)c1ccc(Oc2ccccc2)cc1)OC1CCCCC1=O (stereo unspecified)
[1]
  IC50: > 64.6 µM (inactive)
[2]
  IC50: > 64.6 µM (inactive)

## Fc1ccc(F)c(CNc2ncnc3cc(Cl)ccc23)c1
[4]
  EC50: > 20 µM (inactive)
[5]
  EC50: 9.76 µM (active)
[6]
  IC50: 12.7 µM (inactive)
[7]
  IC50: > 20 µM (inactive)
[8]
  IC50: 6.42 µM (active)
[9]
  IC50: 11.9 µM (active)

## COc1ccccc1NC(=O)CSc1nc2sc(C)c(C)c2c(=O)n1C
[4]
  EC50: > 20 µM (inactive)
[5]
  EC50: > 20 µM (inactive)
[6]
  IC50: 8.8 µM (active)
[7]
  IC50: > 20 µM (inactive)
[8]
  IC50: 12.7 µM (active)
[9]
  IC50: > 20 µM (inactive)

## CSc1cccc(NC(=O)CN(c2ccccc2)S(=O)(=O)N(C)C)c1
[10]
  IC50: > 50 µM (not active)

## O=C(Nc1nnc(-c2ccco2)o1)c1cccc2ccccc12
[11]
  IC50: 4.54 µM (active)
[12]
  CC50: > 20 µM (active)

## Cc1ccc(N(C)/N=C/c2ccc(Cl)cc2Cl)nn1
[3]
  AC50: 75.3 µM (active)
[13]
  EC50: > 112 µM (not active)
[14]
  EC50: > 112 µM (not active)

## COc1cccc(C(=O)Nc2sc(C(C)C)cc2C(N)=O)c1OC
[1]
  IC50: > 64.6 µM (inactive)
[15]
  EC50: > 195 µM (not active)
[2]
  IC50: > 64.6 µM (inactive)

## O=C(NCCc1cccs1)c1ccc(Cl)c(Cl)c1
[3]
  AC50: 44.2 µM (active)

## O=c1c(-c2ccc(F)c(F)c2)c(Br)cnn1Cc1cccc2ccccc12
[16]
  IC50: 0.686 µM (active)
[17]
  IC50: 0.686 µM (active)

## COc1ccc2[nH]c3nc(SCc4nnc(-c5ccc(C)cc5)o4)nnc3c2c1
[10]
  IC50: 6.84 µM (active)

## CC/C(=C(\c1ccc(O)cc1)c1ccc(OCCN(C)C)cc1)c1ccccc1 [AFIMOXIFENE]
[18]
  CC50: 16.6 µM (active)
[19]
  IC50: > 20 µM (inactive)
[20]
  AC50: 25.1 µM (inconclusive)
[21]
  CC50: 19.4 µM (active)

## COc1ccc(C(C#N)c2c(Cl)cnn(Cc3cccc4ccccc34)c2=O)c(F)c1 (stereo unspecified)
[16]
  IC50: 0.198 µM (active)
[17]
  IC50: 0.198 µM (active)

## CC(=O)C1=C(O)C=C2Oc3c(C(C)=O)c(O)c(C)c(O)c3[C@]2(C)C1=O [(-)-USNIC ACID]
[20]
  AC50: 31.6 µM (inconclusive)

## O=C(NCc1cn(-c2ccccc2)nc1-c1ccccc1)c1cc([N+](=O)[O-])cc([N+](=O)[O-])c1
[22]
  AC50: 2.82 µM (inconclusive)
[23]
  EC50: 0.139 µM (active)
[24]
  EC50: > 60 µM (not active)
[25]
  EC50: < 0.1 µM (active)
